In US8841233B2, “Herbicidal compositions comprising 4-amino-3-chloro-5-fluoro-6-(4-chloro-2-fluoro-3-methoxyphenyl) pyridine-2-carboxylic acid or a derivative thereof and 4-hydroxyphenyl-pyruvate dioxygenase (HPPD) inhibitors” (Dow Agrosciences LLC, priority 2012, dated 2014):
Values joined by “and” are separate entries in the source; they are usually repeats but may differ in a detail not shown here. Equal values may be shown once.

Tests used:
[1] = tested on: SCPJU; test: In-water applied weed control, transplanted paddy rice, greenhouse (Example II); assay type: in vivo, Schoenoplectus juncoides (Roxb.) Palla; conditions: 4.38 gae/ha
Experimental: (§1) Evaluation of in-Water Applied Herbicidal Mixtures for Weed Control in Transplanted Paddy Rice
Weed seeds or nutlets of the desired test plant species were planted in puddled soil (mud) prepared by mixing a shredded, non-sterilized mineral soil (50.5 percent silt, 25.5 percent clay, and 24 percent sand, with a pH of about 7.6 and an organic matter content of about 2.9 percent) and water at a 1:1 volumetric ratio. The prepared mud was dispensed in 365 mL aliquots into 16-ounce (oz.) non-perforated plastic pots with a surface area of 86.59 square centimeters (cm^2) leaving a headspace of 3 centimeters (cm) in each pot. Mud was allowed to dry overnight prior to planting or transplanting. Rice seeds were planted in Sun Gro MetroMix® 306 planting mixture, which typically has a pH of 6.0 to 6.8 and an organic matter content of about 30 percent, in plastic plug trays. Seedlings at the second or third leaf stage of growth were transplanted into 840 mL of mud contained in 32-oz. non-perforated plastic pots with a surface area of 86.59 cm^2 4 days prior to herbicide application. The paddy was created by filling the headspace of the pots with 2.5 to 3 cm of water. When required to ensure good germination and healthy plants, a fungicide treatment and/or other chemical or physical treatment was applied. The plants were grown for 4-22 days in a greenhouse with an approximate 14 h photoperiod which was maintained at about 29′C during the day and 26° C. during the night. Nutrients were added as Osmocote® (19:6:12, N:P:K+ minor nutrients) at 2 g per 16-oz. pot and 4 g per 32-oz. pot. […]
(§2) Treatment requirements for each compound or herbicidal component were calculated based upon the rates being tested, the concentration of active ingredient or acid equivalent in the formulation, an application volume of 2 mL per component per pot, and an application area of 86.59 cm^2 per pot.
For formulated compounds, a measured amount was placed in an individual 100 or 200 mL glass vial and was dissolved in a volume of 1.25% (v/v) Agri-Dex® crop oil concentrate to obtain application solutions. […]

[2] = tested on: CYPRO; test: as above; assay type: in vivo, Cyperus rotundus L.
Experimental: as §1
(§3) Weed seeds or nutlets of the desired test plant species were planted in puddled soil (mud) prepared by mixing a shredded, non-sterilized mineral soil (50.5 percent silt, 25.5 percent clay, and 24 percent sand, with a pH of about 7.6 and an organic matter content of about 2.9 percent) and water at a 1:1 volumetric ratio. The prepared mud was dispensed in 365 mL aliquots into 16-ounce (oz.) non-perforated plastic pots with a surface area of 86.59 square centimeters (cm^2) leaving a headspace of 3 centimeters (cm) in each pot. Mud was allowed to dry overnight prior to planting or transplanting. Rice seeds were planted in Sun Gro MetroMix® 306 planting mixture, which typically has a pH of 6.0 to 6.8 and an organic matter content of about 30 percent, in plastic plug trays. Seedlings at the second or third leaf stage of growth were transplanted into 840 mL of mud contained in 32-oz. non-perforated plastic pots with a surface area of 86.59 cm^2 4 days prior to herbicide application. The paddy was created by filling the headspace of the pots with 2.5 to 3 cm of water. When required to ensure good germination and healthy plants, a fungicide treatment and/or other chemical or physical treatment was applied. The plants were grown for 4-22 days in a greenhouse with an approximate 14 h photoperiod which was maintained at about 29′C during the day and 26° C. during the night. Nutrients were added as Osmocote® (19:6:12, N:P:K+ minor nutrients) at 2 g per 16-oz. pot and 4 g per 32-oz. pot. Water was added on a regular basis to maintain the paddy flood, and supplemental lighting was provided with overhead metal halide 1000-Watt lamps as necessary. The plants were employed for testing when they reached the first through fourth true leaf stage.
(§4) Treatments consisted of the acid or esters of 4-amino-3-chloro-5-fluoro-6-(4-chloro-2-fluoro-3-methoxy-phenyl)pyridine-2-carboxylic acid (compound A) each formulated as an SC (suspension concentrate) and various herbicidal components alone and in combination. Forms of compound A were applied on an acid equivalent basis.
(§5) Other herbicidal components were applied on an active ingredient basis and included 4-hydroxyphenyl pyruvate dioxygenase (HPPD)-inhibiting herbicides mesotrione formulated as Callisto®, sulcotrione formulated as Mikado®, pyrazolynate formulated as Sunbird® 10% GR, and benzobicyclon formulated as Benzobicyclon 3.5% or technical material.
as §2
(§6) For formulated compounds, a measured amount was placed in an individual 100 or 200 mL glass vial and was dissolved in a volume of 1.25% (v/v) Agri-Dex® crop oil concentrate to obtain application solutions.
(§7) For technical grade compounds, a weighed amount was placed in an individual 100 to 200 mL glass vial and was dissolved in a volume of acetone to obtain concentrated stock solutions. […] The concentrated stock solutions obtained were diluted with an equivalent volume of an aqueous mixture containing 2.5% (v/v) crop oil concentrate so that the final application solutions contained 1.25% (v/v) crop oil concentrate.
(§8) Applications were made by injecting with a pipetter appropriate amounts of the application solutions, individually and sequentially, into the aqueous layer of the paddy. Control plants were treated in the same manner with the solvent blank. Applications were made so that all treated plant material received the same concentrations of acetone and crop oil concentrate.
(§9) The treated plants and control plants were placed in a greenhouse as described above and water was added as needed to maintain a paddy flood. […]

[3] = tested on: XANST; test: Pre-emergence soil-applied weed control, greenhouse (Example III); assay type: in vivo, Xanthium strumarium L.
Excerpt: Evaluation of Pre-emergence Soil-Applied Herbicidal Mixtures for Weed Control
Seeds or nutlets of the desired test plant species were planted in a soil matrix prepared by mixing a loam soil (32 percent silt, 23 percent clay, and 45 percent sand, with a pH of about 6.5 and an organic matter content of about 1.9 percent) and calcareous grit in an 80 to 20 ratio. The soil matrix was contained in plastic pots with a volume of 1 quart and a surface area of 83.6 square centimeters (cm^2).
as §4, with “benzyl ester” for “acid or esters”, “A)” for “A) each”
Other herbicidal components were applied on an acid equivalent or active ingredient basis and included the 4-hydroxyphenyl pyruvate dioxygenase (HPPD)-inhibiting herbicide, isoxaflutole, formulated as Balance Pro®.
Treatment requirements were calculated based upon the rates being tested, the concentration of active ingredient or acid equivalent in the formulation, and a 12 mL application volume at a rate of 187 L/ha.
For treatments comprised of formulated compounds, measured amounts of compounds were placed individually in 25 mL glass vials and diluted in a volume of 1.25% (v/v) Agri-Dex® crop oil concentrate (COC) to obtain 12× stock solutions. […] Application solutions were prepared by adding an appropriate amount of each stock solution (e.g., 1 mL) and diluted to the appropriate final concentrations with the addition of 10 mL of an aqueous mixture of 1.25% (v/v) COC so that the final spray solutions contained 1.25% (v/v) COC.
All stock solutions and applications solutions were visually inspected for compound compatibility prior to application. Spray solutions were applied to the soil with an overhead Mandel track sprayer equipped with a 8002E nozzles calibrated to deliver 187 L/ha over an application area of 0.503 m^2 at a spray height of 18 inches (46 cm) above average pot height. Control pots were sprayed in the same manner with the solvent blank.
The treated and control pots were placed in a greenhouse and top watered as needed. When required to ensure good germination and healthy plants, a fungicide treatment and/or other chemical or physical treatment was applied. […] After approximately 4 weeks, the condition of the test plants as compared with that of the untreated plants was determined visually and scored on a scale of 0 to 100 percent where 0 corresponds to no injury or growth inhibition and 100 corresponds to complete kill. […]

[4] = tested on: FIMMI; test: In-water applied weed control, transplanted paddy rice, greenhouse (Example II); assay type: in vivo, Fimbristylis miliacea (L.) Vahl
Experimental: as §1, §3, §4, §5, §2, §6, §7, §8, §9

SMILES	Visual Weed Control (%) - 21 DAA SCPJU Obs [1] [%]	Visual Weed Control (%) - 21 DAA CYPRO Obs ([2]; 17.5 gae/ha) [%]	Visual Weed Control (%) - 32 DAA XANST Obs ([3]; 8 gae/ha) [%]	Visual Weed Control (%) - 32 DAA XANST Obs ([3]; 16 gae/ha) [%]	Visual Weed Control (%) - 32 DAA XANST Obs ([3]; 32 gae/ha) [%]	Visual Weed Control (%) - 21 DAA FIMMI Obs ([4]; 8 gae/ha) [%]	Visual Weed Control (%) - 21 DAA FIMMI Obs ([4]; 16 gae/ha) [%]	Visual Weed Control (%) - 22 DAA CYPRO Obs ([2]; 10.6 gae/ha) [%]	Visual Weed Control (%) - 22 DAA CYPRO Obs ([2]; 21.2 gae/ha)	Visual Weed Control (%) - 22 DAA CYPRO Obs ([2]; 42.4 gae/ha) [%]	Visual Weed Control (%) - 21 DAA FIMMI Obs ([4]; 17.5 gae/ha) [%]	Visual Weed Control (%) - 21 DAA FIMMI Obs ([4]; 35 gae/ha) [%]
COc1c(Cl)ccc(-c2nc(C(=O)OCc3ccccc3)c(Cl)c(N)c2F)c1F [Compound A Benzyl Ester, benzyl ester of 4-amino-3-chloro-5-fluoro-6-(4-chloro-2-fluoro-3-methoxy-phenyl)pyridine-2-carboxylic acid]	70	10	33	35	65	15	65	–	–	–	–	–
COc1c(Cl)ccc(-c2nc(C(=O)O)c(Cl)c(N)c2F)c1F [Compound A Acid, 4-amino-3-chloro-6-(4-chloro-2-fluoro-3-methoxyphenyl)-5-fluoropyridine-2-carboxylic acid]	–	–	–	–	–	–	–	0	40% and 60%	90	85	85
